Measured values reported in US20150105252A1, “SUBSTITUTED PYRAZOLES AS HERBICIDES” (E I DU PONT DE NEMOURS AND COMPANY, priority 2013, published 2015).

Assays:
velvetleaf [1] = test: Test A postemergence; assay type: in vivo, Abutilon theophrasti; conditions: Postemergence
How it was run: (§1)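 After sowing in a sand–loam mix, pots received compound preemergence by directed soil spray, or postemergence once plants reached the one- to two-leaf stage (2–10 cm). Formulation contained surfactant in a non-phytotoxic solvent. Injury was scored visually after ~10 greenhouse days, 0–100 scale.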

barnyardgrass = test: Test A preemergence; assay type: in vivo, Echinochloa crus-galli; conditions: preemergence; for Barnyardgrass plant response rating (0 to 100 scale, 0 is no effect, 100 is complete control): 125 g ai/ha, visual injury approx. 10 days after treatment; for Barnyardgrass plant response rating: 500 g ai/ha, visual injury after approx. 10 days, 0 to 100 scale (0 no effect, 100 complete control)
How it was run: as §1

soybean = test: Test C preemergence; assay type: in vivo, Glycine max
How it was run: (§2)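 Visual rating, 0–100 scale (0 no effect, 100 complete control), vs untreated controls after 13–15 d greenhouse. Pre: seeds in loam/sand, treated at sowing. Post: plants in peat-based mix, 1- to 4-leaf (2–18 cm). Solvent + surfactant formulation, non-phytotoxic.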

foxtail, giant = test: Test C preemergence; assay type: in vivo, Setaria faberii
How it was run: as §2

corn = test: Test C postemergence; assay type: in vivo, Zea mays; conditions: for Plant response rating (scale of 0 to 100 where 0 is no effect and 100 is complete control), Corn: Postemergence, 31 g ai/ha, visually evaluated after 13 to 15 days; for Corn plant response rating / Plant response rating, Corn: postemergence; for Corn plant response rating: 62 g ai/ha, scale 0 to 100
How it was run: as §2

ragweed = test: Test C preemergence; assay type: in vivo, Ambrosia elation
How it was run: as §2

wheat = test: Test C preemergence; assay type: in vivo, Triticum aestivum
How it was run: as §2

johnsongrass [2] = test: Test C postemergence; assay type: in vivo, Sorghum halepense; conditions: for Plant response rating (scale of 0 to 100 where 0 is no effect and 100 is complete control), Johnsongrass: Postemergence, 31 g ai/ha, visually evaluated after 13 to 15 days; for Johnsongrass plant response rating / Plant response rating, Johnsongrass: postemergence; for Johnsongrass plant response rating: 62 g ai/ha, scale 0 to 100
How it was run: as §2

oilseed rape = test: Test C preemergence; assay type: in vivo, Brassica napus
How it was run: as §2

velvetleaf [3] = test: Test A preemergence; assay type: in vivo, Abutilon theophrasti; conditions: preemergence
How it was run: as §1

pigweed [4] = test: Test A postemergence; assay type: in vivo, Amaranthus retroflexus; conditions: Postemergence
How it was run: as §1

waterhemp = test: Test C postemergence; assay type: in vivo, Amaranthus rudis; conditions: postemergence; for Plant response rating, Waterhemp: 250 g ai/ha, scale 0 to 100 (0 no effect, 100 complete control); for Waterhemp plant response rating: scale 0 to 100
How it was run: as §2

lambsquarters = test: Test C postemergence; assay type: in vivo, Chenopodium album; conditions: for Plant response rating (scale of 0 to 100 where 0 is no effect and 100 is complete control), Lambsquarters: Postemergence, 31 g ai/ha, visually evaluated after 13 to 15 days; for Lambsquarters plant response rating / Plant response rating, Lambsquarters: postemergence; for Lambsquarters plant response rating: 62 g ai/ha, scale 0 to 100
How it was run: as §2

johnsongrass [5] = test: Test C preemergence; assay type: in vivo, Sorghum halepense
How it was run: as §2

pigweed [6] = test: Test A preemergence; assay type: in vivo, Amaranthus retroflexus; conditions: preemergence; for Pigweed plant response rating (0 to 100 scale): 125 g ai/ha, visual injury approx. 10 days after treatment
How it was run: as §1

blackgrass = test: Test C preemergence; assay type: in vivo, Alopecurus myosuroides; conditions: preemergence; for Plant response rating, Blackgrass: 125 g ai/ha, scale 0 to 100, 0 = no effect, 100 = complete control
How it was run: as §2

[7] = 125 g ai/ha, 0 to 100 scale, 0 no effect, 100 complete control
[8] = 500 g ai/ha, 0 to 100 scale (0 no effect, 100 complete control)
[9] = preemergence, 31 g ai/ha, visual rating, scale 0 to 100 (0 no effect, 100 complete control), 13 to 15 days
[10] = preemergence, 62 g ai/ha, scale 0 to 100 (0 no effect, 100 complete control), 13 to 15 days
[11] = preemergence, 125 g ai/ha, 13 to 15 days, scale 0 to 100, 0 = no effect, 100 = complete control
[12] = preemergence, 250 g ai/ha, scale 0 to 100, 0 is no effect, 100 is complete control
[13] = 250 g ai/ha, scale 0 to 100 (0 no effect, 100 complete control)
[14] = 125 g ai/ha, scale 0 to 100, 0 no effect, 100 complete control
[15] = 500 g ai/ha, visual injury after approx. 10 days, 0 to 100 scale (0 no effect, 100 complete control)
[16] = 31 g ai/ha, visual rating, scale 0 to 100 (0 no effect, 100 complete control), 13 to 15 days
[17] = 62 g ai/ha, scale 0 to 100 (0 no effect, 100 complete control), 13 to 15 days
[18] = 250 g ai/ha, scale 0 to 100, 0 is no effect, 100 is complete control
[19] = Preemergence, rate head not shown (block before 16 g ai/ha), scale 0 to 100

CCCc1cc(C(=O)NC(C)C)nn1Cc1ccnc(C(F)(F)F)c1 [Compound 186]
Velvetleaf plant response rating (velvetleaf [1]; [7]): 20
Velvetleaf plant response rating (velvetleaf [1]; [8]): 100
Barnyardgrass plant response rating (0 to 100 scale, 0 is no effect, 100 is complete control) (barnyardgrass): 100
Barnyardgrass plant response rating (barnyardgrass): 100
Soybean plant response rating (soybean; [9]): 85
Soybean plant response rating (soybean; [10]): 65
Plant response rating, Soybean (soybean; [11]): 98
Soybean plant response rating (soybean; [12]): 98
Foxtail, Giant plant response rating (foxtail, giant; [9]): 100
Foxtail, Giant plant response rating (foxtail, giant; [10]): 100
Plant response rating, Foxtail, Giant (foxtail, giant; [11]): 100
Foxtail, Giant plant response rating (foxtail, giant; [12]): 100
Plant response rating (scale of 0 to 100 where 0 is no effect and 100 is complete control), Corn (corn): 5
Corn plant response rating (corn): 40
Plant response rating, Corn (corn; [13]): 65
Plant response rating, Corn (corn; [14]): 75
Ragweed plant response rating (ragweed; [9]): 75
Ragweed plant response rating (ragweed; [10]): 100
Plant response rating, Ragweed (ragweed; [11]): 95
Ragweed plant response rating (ragweed; [12]): 98
Wheat plant response rating (wheat; [9]): 80
Wheat plant response rating (wheat; [10]): 90
Plant response rating, Wheat (wheat; [11]): 90
Wheat plant response rating (wheat; [12]): 90
Plant response rating (scale of 0 to 100 where 0 is no effect and 100 is complete control), Johnsongrass (johnsongrass [2]): 5
Johnsongrass plant response rating (johnsongrass [2]): 5
Plant response rating, Johnsongrass (johnsongrass [2]; [13]): 95
Plant response rating, Johnsongrass (johnsongrass [2]; [14]): 5
Oilseed Rape plant response rating (oilseed rape; [9]): 100
Oilseed Rape plant response rating (oilseed rape; [10]): 100
Plant response rating, Oilseed Rape (oilseed rape; [11]): 100
Oilseed Rape plant response rating (oilseed rape; [12]): 95
Velvetleaf plant response rating (0 to 100 scale) (velvetleaf [3]; 125 g ai/ha, visual injury approx. 10 days after treatment): 100
Velvetleaf plant response rating (velvetleaf [3]; [15]): 100
Pigweed plant response rating (pigweed [4]; [7]): 60
Pigweed plant response rating (pigweed [4]; [8]): 100
Plant response rating, Waterhemp (waterhemp): 90
Waterhemp plant response rating (waterhemp): 60
Plant response rating (scale of 0 to 100 where 0 is no effect and 100 is complete control), Lambsquarters (lambsquarters): 95
Lambsquarters plant response rating (lambsquarters): 65
Plant response rating, Lambsquarters (lambsquarters; [13]): 98
Plant response rating, Lambsquarters (lambsquarters; [14]): 75
Johnsongrass plant response rating (johnsongrass [5]; [9]): 75
Johnsongrass plant response rating (johnsongrass [5]; [10]): 98
Plant response rating, Johnsongrass (johnsongrass [5]; [11]): 100
Johnsongrass plant response rating (johnsongrass [5]; [12]): 100
Pigweed plant response rating (0 to 100 scale) (pigweed [6]): 0
Pigweed plant response rating (pigweed [6]; [15]): 0
Blackgrass plant response rating (blackgrass; [16]): 85
Blackgrass plant response rating (blackgrass; [17]): 90
Plant response rating, Blackgrass (blackgrass; 13 to 15 days): 90
Blackgrass plant response rating (blackgrass; [18]): 90

CCc1cc(C(=O)NC2CC2)nn1Cc1ccnc(Br)c1 [Compound 220]
Velvetleaf plant response rating (velvetleaf [1]; [7]): 70
Velvetleaf plant response rating (velvetleaf [1]; [8]): 80
Barnyardgrass plant response rating (0 to 100 scale, 0 is no effect, 100 is complete control) (barnyardgrass): 80
Barnyardgrass plant response rating (barnyardgrass): 100
Plant response rating, Soybean (soybean; [19]): 10
Soybean plant response rating (soybean; [10]): 10
Plant response rating, Soybean (soybean; [11]): 35
Soybean plant response rating (soybean; [12]): 60
Plant response rating, Foxtail, Giant (foxtail, giant; [19]): 10
Foxtail, Giant plant response rating (foxtail, giant; [10]): 75
Plant response rating, Foxtail, Giant (foxtail, giant; [11]): 100
Foxtail, Giant plant response rating (foxtail, giant; [12]): 100
Plant response rating (scale of 0 to 100 where 0 is no effect and 100 is complete control), Corn (corn): 5
Corn plant response rating (corn): 5
Plant response rating, Corn (corn; [13]): 10
Plant response rating, Corn (corn; [14]): 5
Plant response rating, Ragweed (ragweed; [19]): 80
Ragweed plant response rating (ragweed; [10]): 65
Plant response rating, Ragweed (ragweed; [11]): 75
Ragweed plant response rating (ragweed; [12]): 95
Plant response rating, Wheat (wheat; [19]): 10
Wheat plant response rating (wheat; [10]): 0
Plant response rating, Wheat (wheat; [11]): 15
Wheat plant response rating (wheat; [12]): 0
Plant response rating (scale of 0 to 100 where 0 is no effect and 100 is complete control), Johnsongrass (johnsongrass [2]): 0
Johnsongrass plant response rating (johnsongrass [2]): 0
Plant response rating, Johnsongrass (johnsongrass [2]; [13]): 25
Plant response rating, Johnsongrass (johnsongrass [2]; [14]): 20
Plant response rating, Oilseed Rape (oilseed rape; [19]): 80
Oilseed Rape plant response rating (oilseed rape; [10]): 30
Plant response rating, Oilseed Rape (oilseed rape; [11]): 85
Oilseed Rape plant response rating (oilseed rape; [12]): 95
Pigweed plant response rating (pigweed [4]; [7]): 90
Pigweed plant response rating (pigweed [4]; [8]): 100
Plant response rating, Waterhemp (waterhemp): 45
Waterhemp plant response rating (waterhemp): 45
Plant response rating (scale of 0 to 100 where 0 is no effect and 100 is complete control), Lambsquarters (lambsquarters): 30
Lambsquarters plant response rating (lambsquarters): 10
Plant response rating, Lambsquarters (lambsquarters; [13]): 25
Plant response rating, Lambsquarters (lambsquarters; [14]): 20
Plant response rating, Johnsongrass (johnsongrass [5]; [19]): 10
Johnsongrass plant response rating (johnsongrass [5]; [10]): 5
Plant response rating, Johnsongrass (johnsongrass [5]; [11]): 5
Johnsongrass plant response rating (johnsongrass [5]; [12]): 80
Pigweed plant response rating (0 to 100 scale) (pigweed [6]): 100
Blackgrass plant response rating (blackgrass; [16]): 0
Blackgrass plant response rating (blackgrass; [17]): 0
Plant response rating, Blackgrass (blackgrass; 13 to 15 days): 40
Blackgrass plant response rating (blackgrass; [18]): 70
